Target: T1, COX-2
T1 construct: gene PTGS2; COX Activity Assay Kit (Cayman); species inferred from usual Cayman COX-2 (human recombinant; ovine possible); docking used PDB 3LN1
Assay: COX peroxidase activity kit, TMPD oxidation at […] nm
Assay type: biochemical
Conditions: DMSO; triplicate

IC50: 300 nM
Compound: O=C(C[C@H](O)C1(c2cccc(O)c2O)Oc2cccc3cccc(c23)O1)OC[C@H](O)CO [compound 1, (8S)-(22R)-2,3-dihydroxypropyl-3-(2-(2,3-dihydroxyphenyl)naphtho[1,8-de][1,3]dioxin-2-yl)-3-hydroxypropanoate]
